Tests used:
[1] = tested on: bone cancer pain in rats (Walker rat breast cancer cells, tibia implant model); test: Mechanical pain hypersensitivity (paw withdrawal threshold) in rat tibia implant bone cancer pain model; assay type: in vivo; details: for Paw withdrawal threshold compared with the model group: from 5-7 days after administration, p<0.05
Method: After two SD female rats were intraperitoneally injected with 0.5 mL cancer cells (4×10^4 cells/μL), ascites was collected on the 7th day, and the cells are rinsed 3 times with sterile 0.01 mol/L PBS to adjust to the concentration of 4×10^3 cells/μL for use. 60 SD rats were randomly selected, and after anesthesia, a small 1 cm incision was made in the upper tibial skin. A 10 mL syringe needle was used to puncture and perforate, then a 10 μL syringe was inserted into the bone marrow cavity, and 3 μL cell suspension containing […] Walker rat breast cancer cells was slowly injected. The pinhole was sealed with bone wax, and the skin was sutured. After surgery, the rats were placed on a 37° C. hot plate for rewarming. After recovery, rats were returned to the cage for further breeding, to obtain the model group. In addition, 8 SD rats were randomly selected, and an equal volume of PBS solution was injected into the marrow cavity of the left upper tibia. The rest of the operations were the same as the model group, to obtain the sham operation group. Mechanical pain hypersensitivity: continuous pain measurement was performed from the 10th day after the operation, the contact stimulator's fine fibers were allowed to touch with the middle of the affected side of the rat's plantar, and the force can be increased up to 80 g within 5 seconds. The rat's paw withdrawal respond was observed, and the paw withdrawal threshold was recorded. Each animal was tested 5 times, with an interval of 5 min between two tests. […] The rats that had been successfully modeled were randomly divided into groups, eight rats for each group, that included high-dose chlorogenic acid group (80 mg/kg), middle-dose chlorogenic acid group (40 mg/kg), low-dose chlorogenic acid group (20 mg/kg), model negative group (N.S normal saline), and sham operation group (N.S normal saline). The rats were intraperitoneally injected with drugs for 15 days in a volume of 0.2 mL/10 g, once a day; the model-negative group and the sham operation group were given the same volume of normal saline. From the second day after administration, the mechanical pain hypersensitivity and radiation thermal pain were investigated before each administration, and the paw withdrawal threshold and the pain threshold were recorded.

[2] = tested on: NE; test: NE content in brain tissue by HPLC-EC in bone cancer pain rats; assay type: in vivo, rat; details: for NE content in the brain tissue: after 15 days of administration
Method: 60 SD rats were randomly selected, and after anesthesia, a small 1 cm incision was made in the upper tibial skin. A 10 mL syringe needle was used to puncture and perforate, then a 10 μL syringe was inserted into the bone marrow cavity, and 3 μL cell suspension containing […] Walker rat breast cancer cells was slowly injected. The pinhole was sealed with bone wax, and the skin was sutured. After surgery, the rats were placed on a 37° C. hot plate for rewarming. After recovery, rats were returned to the cage for further breeding, to obtain the model group. In addition, 8 SD rats were randomly selected, and an equal volume of PBS solution was injected into the marrow cavity of the left upper tibia. The rest of the operations were the same as the model group, to obtain the sham operation group. The rats that had been successfully modeled were randomly divided into groups, eight rats for each group, that included high-dose chlorogenic acid group (80 mg/kg), middle-dose chlorogenic acid group (40 mg/kg), low-dose chlorogenic acid group (20 mg/kg), model negative group (N.S normal saline), and sham operation group (N.S normal saline). The rats were intraperitoneally injected with drugs for 15 days in a volume of 0.2 mL/10 g, once a day; the model-negative group and the sham operation group were given the same volume of normal saline. After the rats were sacrificed, the hypothalamus was quickly separated, homogenized in an ice bath with perchloric acid, and centrifuged. The supernatant was collected, and the contents of NE, DA, and 5-HT were determined by HPLC-EC method (Hou […], Wang Na, et al, Effects of progesterone on morphine-induced conditioned place preference and levels of monoamine transmitters in rat brain. Chinese Journal of Pharmacology, 2006, 22(8), 980-983).

Q: What does the source list for `O=C(/C=C/c1ccc(O)c(O)c1)O[C@@H]1C[C@](O)(C(=O)O)C[C@@H](O)[C@H]1O` [Chlorogenic acid]?
A: Paw withdraw threshold ([1]; 20 mg/kg ip once a day, 2 d): 16.46 g; Paw withdraw threshold ([1]; 20 mg/kg ip once a day, 3 d): 22.32 g; Paw withdraw threshold ([1]; 20 mg/kg ip once a day, 4 d): 26.14 g; Paw withdraw threshold ([1]; 20 mg/kg ip once a day, 5 d): 24.86 g; Paw withdraw threshold ([1]; 20 mg/kg ip once a day, 6 d): 31.21 g; Paw withdraw threshold ([1]; 20 mg/kg ip once a day, 7 d): 37.06 g; Paw withdraw threshold ([1]; 20 mg/kg ip once a day, 8 d): 35.11 g; Paw withdraw threshold ([1]; 20 mg/kg ip once a day, 9 d): 38.48 g; Paw withdraw threshold ([1]; 20 mg/kg ip once a day, 10 d): 37.23 g; Paw withdraw threshold ([1]; 20 mg/kg ip once a day, 11 d): 34.22 g; Paw withdraw threshold ([1]; 20 mg/kg ip once a day, 12 d): 36.74 g; Paw withdraw threshold ([1]; 20 mg/kg ip once a day, 13 d): 33.02 g; Paw withdraw threshold ([1]; 20 mg/kg ip once a day, 14 d): 35.43 g; Paw withdraw threshold ([1]; 20 mg/kg ip once a day, 15 d): 36.52 g; Paw withdrawal threshold compared with the model group ([1]; 20 mg/kg): significant difference; Paw withdraw threshold ([1]; 40 mg/kg ip once a day, 2 d): 18.53 g; Paw withdraw threshold ([1]; 40 mg/kg ip once a day, 3 d): 24.94 g; Paw withdraw threshold ([1]; 40 mg/kg ip once a day, 4 d): 36.37 g; Paw withdraw threshold ([1]; 40 mg/kg ip once a day, 5 d): 42.83 g; Paw withdraw threshold ([1]; 40 mg/kg ip once a day, 6 d): 43.59 g; Paw withdraw threshold ([1]; 40 mg/kg ip once a day, 7 d): 45.85 g; Paw withdraw threshold ([1]; 40 mg/kg ip once a day, 8 d): 50.41 g; Paw withdraw threshold ([1]; 40 mg/kg ip once a day, 9 d): 46.49 g; Paw withdraw threshold ([1]; 40 mg/kg ip once a day, 10 d): 48.77 g; Paw withdraw threshold ([1]; 40 mg/kg ip once a day, 11 d): 44.59 g; Paw withdraw threshold ([1]; 40 mg/kg ip once a day, 12 d): 50.52 g; Paw withdraw threshold ([1]; 40 mg/kg ip once a day, 13 d): 43.72 g; Paw withdraw threshold ([1]; 40 mg/kg ip once a day, 14 d): 48.73 g; Paw withdraw threshold ([1]; 40 mg/kg ip once a day, 15 d): 46.51 g; Paw withdrawal threshold compared with the model group ([1]; 40 mg/kg): significant difference; Paw withdraw threshold ([1]; 80 mg/kg ip once a day, 2 d): 20.58 g; Paw withdraw threshold ([1]; 80 mg/kg ip once a day, 3 d): 18.59 g; Paw withdraw threshold ([1]; 80 mg/kg ip once a day, 4 d): 24.41 g; Paw withdraw threshold ([1]; 80 mg/kg ip once a day, 5 d): 24.39 g; Paw withdraw threshold ([1]; 80 mg/kg ip once a day, 6 d): 26.53 g; Paw withdraw threshold ([1]; 80 mg/kg ip once a day, 7 d): 26.07 g; Paw withdraw threshold ([1]; 80 mg/kg ip once a day, 8 d): 24.52 g; Paw withdraw threshold ([1]; 80 mg/kg ip once a day, 9 d): 26.11 g; Paw withdraw threshold ([1]; 80 mg/kg ip once a day, 10 d): 23.21 g; Paw withdraw threshold ([1]; 80 mg/kg ip once a day, 11 d): 25.42 g; Paw withdraw threshold ([1]; 80 mg/kg ip once a day, 12 d): 22.63 g; Paw withdraw threshold ([1]; 80 mg/kg ip once a day, 13 d): 25.79 g; Paw withdraw threshold ([1]; 80 mg/kg ip once a day, 14 d): 23.25 g; Paw withdraw threshold ([1]; 80 mg/kg ip once a day, 15 d): 24.83 g; Mechanical paw withdrawal threshold compared with the model group ([1]; 80 mg/kg, p>0.05): not statistically significant; NE content in the brain tissue ([2]; 20 mg/kg ip once a day): 0.99 ± 0.18 nmol/g; NE content in brain tissue compared with the model-negative group ([2]; 20 mg/kg, p<0.05): the difference was significant; NE content in the brain tissue ([2]; 40 mg/kg ip once a day): 0.91 ± 0.15 nmol/g; NE content in brain tissue compared with the model-negative group ([2]; 40 mg/kg, p<0.05): the difference was significant; NE content in the brain tissue ([2]; 80 mg/kg ip once a day): 1.47 ± 0.26 nmol/g; NE content in brain tissue compared with the model-negative group ([2]; 80 mg/kg, p>0.05): no significant difference

— patent US20250205186A1, “USE OF CHLOROGENIC ACID IN PREPARING MEDICINE OR PHARMACEUTICAL COMPOSITION FOR PREVENTING OR TREATING PAIN” (SICHUAN JIUZHANG BIOLOGICAL SCIENCE AND TECHNOLOGY CO., LTD., priority 2019, published 2025)
